The values that follow come from paper PMC7570859, “Simultaneous Quantification and Pharmacokinetic Study of Five Homologs of Dalbavancin in Rat Plasma Using UHPLC-MS/MS” (Molecules, 2020).

The nature of series [1]: Pharmacokinetic study of dalbavancin components in rat plasma after IV dalbavancin hydrochloride (UHPLC-MS/MS). To be noted: SD rats, IV 40 mg/kg dalbavancin hydrochloride, mean ± SD, n = 10; for AUC(0–t): 0 to 216 h; for AUC(0–t) / AUC(0–∞): UHPLC-MS/MS, non-compartmental; for MRT / half-life / Vd: both, Sprague-Dawley, rat, iv, 40 mg/kg; for MRT: MRT(0–t); for Vd: Vz (apparent volume of distribution).
Description: (§1) A total of 20 animal plasma samples were analyzed using the verified UHPLC-MS/MS detection method to evaluate 28-day multiple-dose pharmacokinetics of dalbavancin hydrochloride injected daily in rats.
(§2) Blood samples were collected and centrifuged (5417R centrifuge, Eppendorf AG, Hamburg, Germany) at 835× g for 10 min to separate the upper plasma. Then, 50 μL of plasma was mixed with 200 μL of methanol (containing dalbavancin B0-D8 isotope internal standard solutions at a concentration of 100 ng/mL), after which the solution was swirled with a multi-tube vortex mixer (Allsheng, Hangzhou, China) for 10 min and centrifuged at 12,000× g for 10 min. To obtain a cleaner supernatant, it was further centrifuged at 12,000× g for 5 min before sample injection.
(§3) The UHPLC system consisted of an ACQUITY UPLC I-Class (Waters Corp., Milford, MA, USA) and separation was achieved on an ACQUITY UPLC BEH C18 (2.1 mm × 100 mm, 1.7 μm, Waters Corp.). The mobile phase contained 0.1% formic acid (phase A) and acetonitrile (phase B), while the gradient elution procedure was as follows; 0.00–1.00 min: 20%B→30%B, 1.00–6.00 min: 30%B→33%B, 6.01–7.00 min: 95%B, 7.00–7.01 min: 95%B→20%B, 7.01–8.00 min: 20%B. The flow rate was 0.300 mL/min, and the sample injection volume was 5.0 μL. The autosampler was maintained at 6 °C.
(§4) The mass spectrometry system used was Xevo TQ triple quadrupole MS/MS (Waters Corp.), equipped with ESI source. After injecting 500 ng/mL of dalbavancin component combined solution and dalbavancin isotope internal standard solution into the mass spectrometer, the optimized parameters of the instrument were obtained as follows: capillary voltage, 3.00 kV; ion source temperature, 150 °C; desolvation gas temperature, 350 °C; collision gas flow rate, 0.15 mL/min; desolvation gas flow rate, 650 L/h. SRM was used for monitoring the positive ion mode and the total analysis run time was 8 min. Data was processed using UNIFI v1.9.3 software (Waters Corp.).
(§5) A total of 20 SD rats (weighing approximately 200 g each) were selected and divided into two equal groups, with each group containing 5 male and 5 female rats. Pharmacokinetic experiments were conducted for single-dose and multiple-dose administration of dalbavancin hydrochloride. The route of administration was IV, with an administration volume of 5 mL/kg and a dosage was 40 mg/kg. Blood sampling time points of the single-dose administration group were before administration (0 h) and 5 min, 3 h, 8 h, 24 h, 72 h, 144 h, and 216 h post administration. Blood was collected on day 28 for the multiple-dose administration group, and the time points of blood collection were the same as those of single-dose administration. The blood samples collected were immediately separated using centrifugation at 12,000× g for 10 min, and then, the plasma were transferred and stored at −16 °C to −24 °C until analysis.
(§6) Microsoft Office Excel 2007 and IBM SPSS Statistics 19.0 were used for data processing and statistical calculation using two-tailed Student’s t-test. Data Analysis System 3.1 software (DAS, Shanghai, China) was used to analyze and calculate AUC(0–∞), T1/2, Cmax and other parameters using the non-compartmental model.

For series [2] the following is noted: rat, in vivo, iv, 40 mg/kg.
Description: as §1, §2, §3, §4, §5, §6
The conditions of series [3]: in vivo; cited from earlier work.
[4] abbreviates: D28, multiple-dose group, daily for 28 days.
Setting [5] is: T1/2, D28, multiple-dose group, daily for 28 days.

Like-named read-outs stand apart in the source and are kept apart here.

Broadly, the Cmax is the peak of the concentration-time curve. As usually defined, the MRT is a mean duration of stay, worked out from the concentration-time curve. For orientation: half-life means the time in which the quantity being followed falls by half. A low value points to rapid decline.

`CC(C)CCCCCCCCC(=O)N[C@H]1[C@H](Oc2c3cc4cc2Oc2ccc(cc2Cl)[C@@H](O)[C@@H]2NC(=O)[C@H](NC(=O)[C@@H]4NC(=O)[C@H]4NC(=O)[C@@H](Cc5ccc(cc5)O3)NC(=O)[C@H](N(C)C)c3ccc(O)c(c3)Oc3cc(O)c(Cl)c4c3)c3ccc(O)c(c3)-c3c(O[C@H]4O[C@H](CO)[C@@H](O)[C@H](O)[C@@H]4O)cc(O)cc3[C@@H](C(=O)NCCCN(C)C)NC2=O)O[C@H](C(=O)O)[C@@H](O)[C@@H]1O` [B2]: in series [1] (D1, single-dose group), the “AUC(0–t)” value amounted to 163.7 ± 79.5 µg·h/mL, the “AUC(0–∞)” value is 187.2 ± 61.2 µg·h/mL, the Cmax came out at 23400 ± 10400 ng/mL and the MRT amounted to 16.2 ± 2.4 h. In addition, in series [1] (D1, single-dose group), the Vd worked out at 28 ± 23 L/kg. Moreover, in series [1] (setting [4]), the mean residence time (MRT) was 55.7 ± 4.7 h and the Vd was determined as 13.5 ± 3.4 L/kg. Also, the half-life in series [1] (T1/2, D1, single-dose group) was 87.3 ± 68.9 h. Besides, the half-life in series [1] (setting [5]) is 153 ± 43 h.
Consider `CN[C@H]1C(=O)N[C@@H]2Cc3ccc(cc3)Oc3cc4cc(c3O[C@@H]3O[C@H](C(=O)O)[C@@H](O)[C@H](O)[C@H]3NC(=O)CCCCCCCCC(C)C)Oc3ccc(cc3Cl)[C@@H](O)[C@@H]3NC(=O)[C@H](NC(=O)[C@@H]4NC(=O)[C@@H](NC2=O)c2cc(cc(O)c2Cl)Oc2cc1ccc2O)c1ccc(O)c(c1)-c1c(O[C@H]2O[C@H](CO)[C@@H](O)[C@H](O)[C@@H]2O)cc(O)cc1[C@@H](C(=O)NCCCN(C)C)NC3=O` [B0], for which, in series [2] (both, Sprague-Dawley), the “MRT(0–t)” value was 23.0 ± 0.9 h, the T1/2 stood at 74.6 ± 45.9 h and the “Vz (apparent volume of distribution)” value is recorded as 0.7 ± 0.5 L/kg. Also, in series [2], the “AUC(0–t)” value turned out to be 5776.5 ± 2593.2 µg·h/mL, the “AUC(0–∞)” value came to 6566.7 ± 1820.3 µg·h/mL, the Cmax was 437300 ± 160300 ng/mL and the “plasma AUC(0–∞) relative to the other components combined” value is reported as “approximately 5.8 times”.
Consider `CN[C@H]1C(=O)N[C@@H]2Cc3ccc(cc3)Oc3cc4cc(c3O[C@@H]3O[C@H](C(=O)O)[C@@H](O)[C@H](O)[C@H]3NC(=O)CCCCCCCC(C)C)Oc3ccc(cc3Cl)[C@@H](O)[C@@H]3NC(=O)[C@H](NC(=O)[C@@H]4NC(=O)[C@@H](NC2=O)c2cc(cc(O)c2Cl)Oc2cc1ccc2O)c1ccc(O)c(c1)-c1c(O[C@H]2O[C@H](CO)[C@@H](O)[C@H](O)[C@@H]2O)cc(O)cc1[C@@H](C(=O)NCCCN(C)C)NC3=O` [A0], for which, in series [1] (D1, single-dose group), the “AUC(0–t)” value came to 10.5 ± 2.6 µg·h/mL, the “AUC(0–∞)” value worked out at 11.8 ± 2.6 µg·h/mL, the highest concentration (Cmax) worked out at 1800 ± 200 ng/mL and the “Vz (apparent volume of distribution)” value was determined as 32.9 ± 5.7 L/kg. This compound showed a mean residence time MRT in series [1] (D1, single-dose group) of 5.6 ± 0.3 h. In series [1] (setting [4]), the mean residence time MRT is 60.7 ± 2.7 h and the Vd was determined as 196 ± 27.3 L/kg. In series [1] (T1/2, D1, single-dose group), this compound had a half-life of 6.5 ± 0.6 h.
Consider Dalbavancin, for which, in series [3], the “adverse event: diarrhea” value is given as 4.4%, the “adverse event: headache” value is reported as 4.7% and the “adverse event: nausea” value was 5.5%.
As for `CCCCCCCCCCCC(=O)N[C@H]1[C@H](Oc2c3cc4cc2Oc2ccc(cc2Cl)[C@@H](O)[C@@H]2NC(=O)[C@H](NC(=O)[C@@H]4NC(=O)[C@H]4NC(=O)[C@@H](Cc5ccc(cc5)O3)NC(=O)[C@H](NC)c3ccc(O)c(c3)Oc3cc(O)c(Cl)c4c3)c3ccc(O)c(c3)-c3c(O[C@H]4O[C@H](CO)[C@@H](O)[C@H](O)[C@@H]4O)cc(O)cc3[C@@H](C(=O)NCCCN(C)C)NC2=O)O[C@H](C(=O)O)[C@@H](O)[C@@H]1O` [B1], in series [1] (D1, single-dose group), the “AUC(0–t)” value amounted to 688.2 ± 272.2 µg·h/mL, the “AUC(0–∞)” value was determined as 756.2 ± 191.4 µg·h/mL, the maximum concentration (Cmax) turned out to be 42900 ± 18900 ng/mL and the mean residence time (MRT) was 32.3 ± 1.5 h. Besides, the Vd in series [1] (D1, single-dose group) amounted to 2.3 ± 0.4 L/kg. In series [1] (setting [4]), the MRT turned out to be 68.6 ± 8.2 h and the Vd was determined as 1.2 ± 0.4 L/kg. In addition, in series [1] (T1/2, D1, single-dose group), the half-life was 29.1 ± 1.1 h. For the same compound, the half-life in series [1] (setting [5]) is 87 ± 27.5 h.
Turning to `CCCCCCCCCCC(=O)N[C@H]1[C@H](Oc2c3cc4cc2Oc2ccc(cc2Cl)[C@@H](O)[C@@H]2NC(=O)[C@H](NC(=O)[C@@H]4NC(=O)[C@H]4NC(=O)[C@@H](Cc5ccc(cc5)O3)NC(=O)[C@H](NC)c3ccc(O)c(c3)Oc3cc(O)c(Cl)c4c3)c3ccc(O)c(c3)-c3c(O[C@H]4O[C@H](CO)[C@@H](O)[C@H](O)[C@@H]4O)cc(O)cc3[C@@H](C(=O)NCCCN(C)C)NC2=O)O[C@H](C(=O)O)[C@@H](O)[C@@H]1O` [A1], in series [1] (D1, single-dose group), the “AUC(0–t)” value stood at 155.4 ± 79.9 µg·h/mL, the “AUC(0–∞)” value is 173.1 ± 65.6 µg·h/mL, the Cmax was 14800 ± 6100 ng/mL and the “Vz (apparent volume of distribution)” value is reported as 9.4 ± 3.3 L/kg. Besides, the mean residence time MRT in series [1] (D1, single-dose group) was determined as 17 ± 3.8 h. In series [1] (setting [4]), the mean residence time (MRT) amounted to 53 ± 5.2 h and the Vd was 10.1 ± 1.3 L/kg. The same compound showed a half-life in series [1] (T1/2, D1, single-dose group) of 27.5 ± 11.4 h. The compound further showed a half-life in series [1] (setting [5]) of 110 ± 10.6 h.
